Counter-ions that a name gives are not always drawn.
What was measured:
[1] = test system: mice plasma; experiment: in vitro; assay type: in vitro ADME; settings: mouse, plasma, 4 h, 5 μM
Protocol: (§1) The objective of this study was to evaluate protein binding test compounds in mice plasma. This was accomplished by spiking the test compounds at a concentration of 5 μM into mice plasma and dialyzing against buffer until equilibrium is achieved (4 hours). Analyte area ratios of the test compounds in plasma and buffer were determined to calculate unbound and bound percentages of compound to the plasma proteins.
(§2) Phosphate buffered saline pack (0.1 M sodium phosphate and 0.15 M sodium chloride, pH 7.2) was dissolved in 500 mL of deionized water and pH was adjusted to 7.4 with 0.5 N NaOH.
(§3) 1 mM stock solutions were prepared in DMSO and diluted 200-folds in mice plasma to prepare a concentration of 5 μM. The final DMSO concentration in plasma was 0.5%.
(§4) Rapid equilibrium dialysis was performed with a rapid equilibrium dialysis (RED) device containing dialysis membrane with a molecular weight cut-off of 8,000 Daltons. Each dialysis insert contains two chambers. The red chamber is for plasma while the white chamber is for buffer.
(§5) A 200 μL aliquot of warfarin and test compound at 5 (triplicates) were separately added to the plasma chamber and 350 μL of phosphate buffer saline (pH 7.4) was added to the buffer chamber of the inserts. After sealing the RED device with an adhesive film, dialysis was performed in incubator at 37° C. with shaking at 100 RPM for 4 hours.
(§6) A 50 μL aliquot of warfarin and test compounds were added to four 0.5 mL microfuse tubes. Two aliquots were frozen immediately (0 minute sample). The other two aliquots were incubated at 37° C. for 4 hours along with the RED device.
(§7) Following dialysis, an aliquot of 50 μL was removed from each well (both plasma and buffer side) and diluted with equal volume of opposite matrix (dialyzed with the other matrix) to nullify the matrix effect. Similarly, 50 μL of buffer was added to recovery and stability samples. An aliquot of 100 μL was submitted for LCMS/MS analysis.
(§8) A 25 μL aliquot of warfarin and test compounds were crashed with 100 μL of acetonitrile containing internal standard (glipizide) and vortexed for 5 minutes. The samples were centrifuged at 4000 RPM at 4° C. for 10 min and 100 μL of supernatant was submitted for LC-MS/MS analysis. Samples were monitored for parent compound in MRM mode using LC-MS/MS.
(§9) The peak area ratios (analyte versus internal standard) obtained were used to determine the fraction of compound bound to plasma proteins.

[2] = in vitro; assay type: in vitro ADME, mice; settings: mouse; for recovery at 4 h, 5 µM: pH 7.4; for fraction unbound at 4 h, 5 μM: plasma
Protocol: as §1, §2, §3, §4, §5, §6, §7, §8, §9

[3] = test system: GBM cells; experiment: Cell viability dose response in GBM cells (Vi-CELL, CellTiter-Glo); assay type: cell-based; settings: compared with controls (DMSO and Temozolomide)
Protocol: Small molecules were synthesized by the Molecular Design and Synthesis laboratory, Rutgers Translational Sciences at Rutgers University, NJ, USA. To compare the effects of Exemplary Compound 14 to Comparative Example 100, cells (3×10^5/well) were seeded into the 96-well tissue culture plates and treated with different BMI1 inhibitors (from 10 nM to 10 μM) in appropriate media. Dose response curves were generated upon exposing GBM cells to different concentrations of Exemplary compound 14, Comparative Example 101, and Comparative Example 100 (0.010-10 μM) for 72 hours. Cells were counted using Beckman Coulter Vi-CELL Cell Viability Analyzer, and cell viability was confirmed by CellTiter-Glo Luminescent Cell Viability Assay (Promega, Madison, WI, USA) according to standard protocols and analyzed with a Victor 2 plate reader (Wallac, Turku, Finland). We then assessed the selectivity and potency in GBM cells vs primary GBM. Dose-response curves were generated in both spheres and monocultures and used to determine a sphere selectivity ratio (targeting Glioblastoma Initiating Cells), defined as EC50(U87)/EC50(spheres), for each compound.

[4] = test system: PD-L1; experiment: Western blotting of PD-L1 levels in GBM spheres; assay type: cell-based, human
[5] = Toxicity in preclinical mouse models; assay type: in vivo
[6] = Bi-directional Caco-2 transport assay; assay type: in vitro ADME; settings: human; for Papp at 90 min, 5 μM: Caco-2; for Papp A→B at 90 min, 5 μM / Papp B→A at 90 min, 5 μM: Caco-2, pH 7.4
Protocol: (§10) The objective of the study is to evaluate test compounds as substrates for efflux transporter using Caco-2 cell line. To assess the functionality of P-glycoprotein (P-gp), loperamide was run as a positive control (Apical and basolateral HBSS pH 7.4).
(§11) 5 mM DMSO stock of test compounds and loperamide was diluted 1000-folds in HBSS having 0.1% DMSO to prepare concentrations of 5 μM.
(§12) Caco-2 cells were grown in DMEM (20% FBS) until 85-90% confluence. After attaining required confluence, cells were trypsinized and seeded into 24 well millcell plates at a density of 0.6×10^5 cells/insert. The plates were maintained for 21 days at 37° C. in CO2 incubator with change of medium every alternative day. Monolayer integrity was monitored by measuring Trans-epithelial electrical resistance (TEER) from day 15.
(§13) Caco-2 cell monolayer was washed twice with HBSS and incubated for 40 min in CO2 incubator. TEER values were measured and wells showing TEER values above 230 ohms·cm^2 were taken for experiments. The study was performed in loperamide and test compounds by adding 400 μL of loperamide prepared in HBSS in apical (A-B transport) followed by addition of 800 μL of HBSS on basal side and for B-A transport 800 μL of loperamide prepared in HBSS was dosed in basal followed by addition of 400 μL HBSS on apical side. At selected time points (0, 15, 30, 60 and 90 mins) an aliquot of 50 μL was collected from the receiver compartment for determination of test compound concentrations. The volume withdrawn was replaced immediately with HBSS buffer. TEER was measured at the end to the experiment to confirm any damage of monolayer while performing experiment. Those wells with TEER not meeting the criteria were excluded from the study.
(§14) A 50 μL of test compound samples collected at respective time points and submitted for LC-MS/MS analysis.
(§15) The apparent permeability (Papp) (A−B & B−A) of test compounds and positive control was calculated using the following formula: Papp=dQ/dt/A·Co where, dQ/dt=linear slope of test compound concentration in receptor chamber with time (0, 15, 30, 60 and 90 min) after correcting for dilution; A=area of the filter (0.7 cm^2); and Co=initial concentration of compound in the donor compartment.
(§16) Efflux ratio (RE) was calculated using the following equation: RE=PB/A/PA/B where PB/A and PA/B represent the apparent permeability of test compound from the basal to apical and apical to basal side of cell monolayer.
(§17) Recovery represents: (amount of the compound recovered from donor at end of incubation+cumulative amount of compound in acceptor at end of incubation+amount of the compound in cell lysate or assay well)/amount of compound in donor solution at time zero*100
(§18) Compounds are classified based on Papp values as follows:
(§19) A compound having efflux ratio of >2 is considered as having potential as a P-gp substrate.

[7] = test system: P-gp; experiment: Bi-directional Caco-2 transport assay; assay type: in vitro ADME; settings: human, Caco-2, Efflux Ratio (B-A/A-B)
Protocol: as §10, §11, §12, §13, §14, §15, §16, §17, §18, §19

SMILES | % compound remaining at 4 hrs [1] | recovery at 4 h, 5 µM ([2]; Plasma) | fraction unbound at 4 h, 5 μM ([2]; pH 7.4, % Bound Mean ± SD) | fraction unbound at 4 h, 5 μM ([2]; pH 7.4, % Bound R1) | fraction unbound at 4 h, 5 μM ([2]; pH 7.4, % Bound R2) | fraction unbound at 4 h, 5 μM ([2]; pH 7.4, % Bound R3) | fraction unbound at 4 h, 5 μM ([2]; pH 7.4, PPB at 4 h) | sphere selectivity ratio EC50(U87)/EC50(spheres) [3] | PD-L1 levels, time-course ([4]; 7-10 nM, time-course of 120 hours) | recovery at 4 h, 5 µM [2] | toxicity in vivo [5] | PDL1 levels ([4]; GBM spheres, Western blotting) | Papp at 90 min, 5 μM [6] | Papp A→B at 90 min, 5 μM [6] | Papp B→A at 90 min, 5 μM [6] | efflux ratio at 90 min, 5 μM [7]
[2H]C([2H])([2H])Oc1ccc(Nc2nc(-c3c(C)nc4ccccn34)cs2)cc1 [Compound 15, N-(4-(methoxy-d3)phenyl)-4-(2-methylimidazo[1,2-c]pyridin-3-yl)thiazol-2-amine hydrochloride] | 90% | 114% | 0.001 | 0.001 | 0.001 | 0.001 | 0.1 |  |  |  |  |  |  |  |  | 
COc1c(F)cc(Nc2nc(-c3c(C)nc4ccccn34)cs2)cc1F [Compound 14, hydrochloride] | 76% |  | 0.003 | 0.002 | 0.003 | 0.002 | 0.24 | high selectivity for glioblastoma cancer stem cells | modulate of the levels of PD-L1 | 124% | appear not to have toxicity in vivo |  |  |  |  | 
[2H]C1([2H])Oc2ccc(Nc3nc(-c4c(C)nc5ccccn45)cs3)cc2O1 [Compound 17, N-(benzo[d][1,3]dioxol-5-yl-2,2-d2)-4-(2-methylimidazo[1,2-c]pyridin-3-yl)thiazol-2-amine hydrochloride] | 75% |  | 0.006 | 0.008 | 0.004 | 0.005 | 0.25 |  |  | 124% |  | increased PDL1 | 3 to 15 ×10⁻⁶ cm/s | 4.9 ± 0.8 ×10⁻⁶ cm/s | 6.4 ± 0.6 ×10⁻⁶ cm/s | < 2
Cc1nc2ccccn2c1-c1csc(Nc2ccc3c(c2)OC(F)(F)O3)n1 [Compound 16, N-(2,2-difluorobenzo[d][1,3]dioxol-5-yl)-4-(2-methylimidazo[1,2-a]pyridin-3-yl)thiazol-2-amine hydrochloride] | 76% | 117% | 0.01 | 0.01 | 0.01 | 0.011 | 0.24 |  |  |  |  |  | 3 to 15 ×10⁻⁶ cm/s | 14 ± 3.3 ×10⁻⁶ cm/s | 12.1 ± 0.1 ×10⁻⁶ cm/s | 

Reference: patent US12215106B2, “Pharmaceutical compounds and therapeutic methods” (RUTGERS, THE STATE UNIVERSITY OF NEW JERSEY, priority 2018, dated 2025)
